Test results as given in ChEMBL document CHEMBL5724696, “Autophagy assay results for EUbOPEN Chemogenomics Library” (2024).

What was measured:
Type in all cases: functional, Homo sapiens
[1] = tested on: U2OS; assay: (§1) Here: values are normalized to the negative (DMSO; defined as 0% autophagy induction) and positive (250nM Torin1; mTOR inhibitor; defined as maximal inducer of autophagy = 100%) control compounds and represented as % of autophagy induction. […] The impact of autophagy induction on cells is complex and depends on the affected target. As such, the magnitude of a phenotype may not be equally mirrored in the %-value of autophagy induction and vice versa. The dynamics of the induction may indicate the mode of activation: e.g. activation via phosphorylation or a signaling cascade may occur fast, while activation via transcription factors may take considerably longer. […] Of note, treatment concentrations may be sub-optimal for specific compounds, leading to false negative annotations.; conditions: Culturing Media DMEM, 1 % Penicillin/Streptomycin, 10% Fetal bovin serum Add-On: No, Screening Media Control DMEM, Screening Media Samples DMEM
[2] = tested on: TERT-RPE1; assay: as §1; conditions: Culturing Media DMEM/F12 (1:1), 1 % Penicillin/Streptomycin, 10% Fetal bovin serum Add-On: No, Screening Media Control DMEM/F12 (1:1), Screening Media Samples DMEM/F12 (1:1)
[3] = tested on: U2OS; assay: as §1; conditions: Culturing Media DMEM, 1 % Penicillin/Streptomycin, 10% Fetal bovin serum Add-On: No, Screening Media Control DMEM, Screening Media Samples DMEM; remark: listed apart in the source
[4] = Compound Concentration 0.5 uM, Timepoint 12 hours
[5] = Compound Concentration 0.5 uM, Timepoint 24 hours
[6] = Compound Concentration 0.5 uM, Timepoint 36 hours
[7] = Compound Concentration 0.5 uM, Timepoint 60 hours
[8] = Compound Concentration 2 uM, Timepoint 12 hours
[9] = Compound Concentration 2 uM, Timepoint 24 hours
[10] = Compound Concentration 2 uM, Timepoint 36 hours
[11] = Compound Concentration 2 uM, Timepoint 60 hours
[12] = Compound Concentration 10 uM, Timepoint 12 hours
[13] = Compound Concentration 10 uM, Timepoint 24 hours
[14] = Compound Concentration 10 uM, Timepoint 36 hours
[15] = Compound Concentration 10 uM, Timepoint 60 hours

| Compound | autophagy induction [1, 4] | autophagy induction [1, 5] | autophagy induction [1, 6] | autophagy induction [1, 7] | autophagy induction [1, 8] | autophagy induction [1, 9] | autophagy induction [1, 10] | autophagy induction [1, 11] | autophagy induction [1, 12] | autophagy induction [1, 13] | autophagy induction [1, 14] | autophagy induction [1, 15] | autophagy induction [2, 4] | autophagy induction [2, 5] | autophagy induction [2, 6] | autophagy induction [2, 7] | autophagy induction [2, 8] | autophagy induction [2, 9] | autophagy induction [2, 10] | autophagy induction [2, 11] | further results |
| --- | --- | --- | --- | --- | --- | --- | --- | --- | --- | --- | --- | --- | --- | --- | --- | --- | --- | --- | --- | --- | --- |
| CCc1cc(C(C)=O)c(O)cc1OCCCCCC(C)(C)c1nn[nH]n1 [LY-255283] | 3.867% | -0.4862% | -0.9692% | -0.6256% | 7.835% | 0.4992% | -1.36% | 0.1348% | 10.6288% | 4.072% | 1.093% | 0.5552% | -9.9842% | -11.9426% | -14.7708% | -17.4457% | -8.34% | -9.195% | -15.7799% | -19.0275% | autophagy induction [2, 12]: -6.621%; autophagy induction [2, 13]: -4.037%; autophagy induction [2, 14]: -5.452%; autophagy induction [2, 15]: -5.811%; autophagy induction [3, 4]: 7.95%; autophagy induction [3, 5]: 0.1788%; autophagy induction [3, 6]: 0.4616%; autophagy induction [3, 7]: 2.676%; autophagy induction [3, 8]: 6.9255%; autophagy induction [3, 9]: 1.248%; autophagy induction [3, 10]: 3.296%; autophagy induction [3, 11]: 1.486%; autophagy induction [3, 12]: -12.1559%; autophagy induction [3, 13]: -5.674%; autophagy induction [3, 14]: -8.912%; autophagy induction [3, 15]: -14.6191% |
| C[C@H](CO)Nc1nc(SCc2cccc(Cl)c2F)nc2[nH]c(=O)sc12 | 5.635% | -1.036% | -0.662% | 0.3997% | -11.0736% | -4.995% | -2.19% | -0.5002% | 9.288% | 6.328% | 3.708% | 1.649% | -10.6276% | -12.9518% | -15.2456% | -20.3989% | -5.728% | -8.929% | -11.3534% | -17.566% | autophagy induction [2, 12]: -4.7585%; autophagy induction [2, 13]: -7.211%; autophagy induction [2, 14]: -11.193%; autophagy induction [2, 15]: -13.8782%; autophagy induction [3, 4]: -2.252%; autophagy induction [3, 5]: -5.227%; autophagy induction [3, 6]: -4.361%; autophagy induction [3, 7]: 0.5148%; autophagy induction [3, 8]: -3.135%; autophagy induction [3, 9]: -6.665%; autophagy induction [3, 10]: -3.053%; autophagy induction [3, 11]: -3.815%; autophagy induction [3, 12]: -3.826%; autophagy induction [3, 13]: 1.119%; autophagy induction [3, 14]: 5.199%; autophagy induction [3, 15]: 9.3581% |
| COC1CCN(c2cccc(-c3cc(NC(C)=O)nc(-n4nc(C)cc4C)n3)n2)CC1 | 2.5303% | -0.8923% | -0.9403% | 0.4833% | 5.065% | 2.721% | -0.07864% | -0.6053% | 7.172% | -0.05151% | 0.1867% | -2.376% | -7.33% | -8.964% | -12.5665% | -12.2397% | -1.032% | 0.9672% | 2.277% | 7.2174% | autophagy induction [2, 12]: 3.426%; autophagy induction [2, 13]: 13.112%; autophagy induction [2, 14]: 27.8595%; autophagy induction [2, 15]: 52.8636%; autophagy induction [3, 4]: 34.4556%; autophagy induction [3, 5]: 27.7724%; autophagy induction [3, 6]: 24.8838%; autophagy induction [3, 7]: 23.4921%; autophagy induction [3, 8]: -5.934%; autophagy induction [3, 9]: -0.6278%; autophagy induction [3, 10]: -1.762%; autophagy induction [3, 11]: -0.9306%; autophagy induction [3, 12]: -4.754%; autophagy induction [3, 13]: 3.79%; autophagy induction [3, 14]: 9.047%; autophagy induction [3, 15]: 19.3391% |
| CNc1nc(NCc2ccc(NS(C)(=O)=O)cc2Cl)cc(-c2ccccn2)n1 | -4.8332% | -1.906% | -1.0253% | -0.2766% | -0.6465% | 0.2341% | -0.0484% | 0.9042% | -8.81% | -3.343% | -3.38% | -6.97% | -1.3719% | -4.63% | -8.2685% | -4.377% | 1.95% | -3.372% | -5.053% | 1.232% | autophagy induction [2, 12]: 14.7912%; autophagy induction [2, 13]: 21.0269%; autophagy induction [2, 14]: 30.7963%; autophagy induction [2, 15]: 56.217%; autophagy induction [3, 4]: 14.6542%; autophagy induction [3, 5]: 1.484%; autophagy induction [3, 6]: 3.538%; autophagy induction [3, 7]: 8.159%; autophagy induction [3, 8]: 23.6541%; autophagy induction [3, 9]: 10.7985%; autophagy induction [3, 10]: 11.9727%; autophagy induction [3, 11]: 23.1222%; autophagy induction [3, 12]: 27.3974%; autophagy induction [3, 13]: 31.2749%; autophagy induction [3, 14]: 36.9575%; autophagy induction [3, 15]: 46.6456% |
